# Reference: ChEMBL document CHEMBL3421597, “(±) cis-Bisamido epoxides: A novel series of potent FXIII-A inhibitors” (Eur J Med Chem, 2015)
# Activity calls are given as the source filed them. The rule behind the calls is not given here.
# What was measured:
# [1] = target: Cathepsin S (Homo sapiens) (UniProt P25774); experiment: Inhibition of cathepsin S (unknown origin) using Z-Val-Val-Arg-AMC as substrate at 100 uM measured every minute for 30 mins by fluorometric plate reader analysis
# [2] = target: T1, Coagulation factor XIII A chain (Homo sapiens) (UniProt P00488); experiment: Inhibition of F13-A in human plasma assessed as inhibition of fibrin clot formation at 2 X 10^-7 M by biotin incorporation assay in presence of 10 X 10^-3 mol/l reduced GSH; conditions: values are per cent of control
# T1 sequence (whole entry): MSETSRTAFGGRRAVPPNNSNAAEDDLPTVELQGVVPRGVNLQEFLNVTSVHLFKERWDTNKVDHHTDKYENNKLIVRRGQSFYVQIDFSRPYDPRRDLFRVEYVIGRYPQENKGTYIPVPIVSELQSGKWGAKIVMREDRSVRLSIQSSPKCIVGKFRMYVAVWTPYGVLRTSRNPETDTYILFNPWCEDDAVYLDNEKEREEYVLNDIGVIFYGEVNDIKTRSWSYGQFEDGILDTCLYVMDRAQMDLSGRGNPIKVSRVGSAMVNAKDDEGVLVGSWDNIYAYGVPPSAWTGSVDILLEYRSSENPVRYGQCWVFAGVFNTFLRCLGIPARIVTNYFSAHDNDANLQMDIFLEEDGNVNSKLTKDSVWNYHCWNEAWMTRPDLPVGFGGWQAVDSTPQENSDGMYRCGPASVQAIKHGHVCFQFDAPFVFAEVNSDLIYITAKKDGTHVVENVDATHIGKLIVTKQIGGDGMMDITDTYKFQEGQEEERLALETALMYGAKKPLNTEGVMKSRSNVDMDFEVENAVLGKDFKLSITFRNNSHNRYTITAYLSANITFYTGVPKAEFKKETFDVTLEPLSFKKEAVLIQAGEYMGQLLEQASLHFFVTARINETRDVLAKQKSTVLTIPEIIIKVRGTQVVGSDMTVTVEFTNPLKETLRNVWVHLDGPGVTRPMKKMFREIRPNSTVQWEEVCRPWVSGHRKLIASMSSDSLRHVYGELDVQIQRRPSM
# [3] = target: T1, Coagulation factor XIII A chain (Homo sapiens); experiment: Inhibition of F13-A in human plasma assessed as inhibition of fibrin clot formation at 7.5 X 10^-8 M by biotin incorporation assay in presence of 10 X 10^-3 mol/l reduced GSH; conditions: values are per cent of control
# Homo sapiens = species: Homo sapiens; experiment: Selectivity ratio, ratio of concentration required for inhibition of cathepsin S (unknown origin) to IC50 for F13-A (unknown origin)
# [4] = target: T1, Coagulation factor XIII A chain (Homo sapiens); experiment: Inhibition of F13-A in human plasma assessed as inhibition of fibrin clot formation at 2 X 10^-7 M by biotin incorporation assay; conditions: values are per cent of control
# [5] = target: T1, Coagulation factor XIII A chain (Homo sapiens); experiment: Inhibition of F13-A in human plasma assessed as inhibition of fibrin clot formation at 2 X 10^-8 M by biotin incorporation assay; conditions: values are per cent of control
# [6] = target: T1, Coagulation factor XIII A chain (Homo sapiens); experiment: Inhibition of F13-A in human plasma assessed as inhibition of fibrin clot formation at 1 X 10^-6 M by biotin incorporation assay in presence of 10 X 10^-3 mol/l reduced GSH; conditions: values are per cent of control
# [7] = target: T1, Coagulation factor XIII A chain (Homo sapiens); experiment: Inhibition of F13-A in human plasma assessed as inhibition of fibrin clot formation at 2 X 10^-8 M by biotin incorporation assay in presence of 10 X 10^-3 mol/l reduced GSH; conditions: values are per cent of control
# [8] = target: T2, Protein-glutamine gamma-glutamyltransferase (Homo sapiens, UniProt P21980); experiment: Inhibition of transglutaminase 2 (unknown origin)
# T2 sequence (P21980 whole entry): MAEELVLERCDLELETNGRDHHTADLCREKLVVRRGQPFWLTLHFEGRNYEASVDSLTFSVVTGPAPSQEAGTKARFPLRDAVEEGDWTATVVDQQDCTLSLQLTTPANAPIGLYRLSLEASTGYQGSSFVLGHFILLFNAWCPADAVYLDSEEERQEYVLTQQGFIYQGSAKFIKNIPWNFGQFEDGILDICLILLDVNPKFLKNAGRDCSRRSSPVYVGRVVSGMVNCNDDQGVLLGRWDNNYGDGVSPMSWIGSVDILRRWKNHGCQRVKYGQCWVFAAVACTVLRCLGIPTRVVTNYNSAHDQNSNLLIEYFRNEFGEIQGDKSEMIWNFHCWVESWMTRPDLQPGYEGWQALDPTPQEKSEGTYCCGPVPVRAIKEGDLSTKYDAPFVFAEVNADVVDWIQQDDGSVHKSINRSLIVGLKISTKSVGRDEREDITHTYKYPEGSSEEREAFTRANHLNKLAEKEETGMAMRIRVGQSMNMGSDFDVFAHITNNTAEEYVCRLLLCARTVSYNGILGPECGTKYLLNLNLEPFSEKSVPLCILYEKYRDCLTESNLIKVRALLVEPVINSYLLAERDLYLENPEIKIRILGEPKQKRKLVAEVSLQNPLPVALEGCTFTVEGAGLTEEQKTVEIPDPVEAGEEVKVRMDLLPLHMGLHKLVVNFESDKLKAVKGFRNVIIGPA
# [9] = target: T1, Coagulation factor XIII A chain (Homo sapiens); experiment: Inhibition of F13-A in human plasma assessed as inhibition of fibrin clot formation at 7.5 X 10^-8 M by biotin incorporation assay; conditions: values are per cent of control
# [10] = target: T1, Coagulation factor XIII A chain (Homo sapiens); experiment: Inhibition of F13-A in human plasma assessed as inhibition of fibrin clot formation at 1 X 10^-6 M by biotin incorporation assay; conditions: values are per cent of control
# [11] = target: T3, Coagulation factor XIII A chain (Homo sapiens, UniProt P00488); experiment: Inhibition of thrombin-activated F13-A (unknown origin) in plasma assessed as inhibition of fibrin clot formation after 7 mins by biotin incorporation assay
# T3 sequence (P00488 whole entry): T1 sequence (whole entry)
# [12] = target: T1, Coagulation factor XIII A chain (Homo sapiens); experiment: Inhibition of F13-A (unknown origin) at 10^-6 mol/l in presence of 5 X 10^-3 mol/l DTT
# [13] = target: T3, Coagulation factor XIII A chain; experiment: Inhibition of F13-A in human plasma assessed as inhibition of fibrin clot formation by biotin incorporation assay in presence of 1 mM reduced GSH
# Chain of Cathepsin S (Homo sapiens) (P25774 115-331 limits assumed): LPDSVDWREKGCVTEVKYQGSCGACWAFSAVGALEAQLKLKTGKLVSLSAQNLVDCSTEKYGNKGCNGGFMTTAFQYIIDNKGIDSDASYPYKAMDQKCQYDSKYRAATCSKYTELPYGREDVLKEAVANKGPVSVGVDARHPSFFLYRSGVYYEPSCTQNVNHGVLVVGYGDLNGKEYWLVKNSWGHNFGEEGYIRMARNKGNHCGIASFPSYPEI
Structure (SMILES),inhibition [1],residual activity [2],residual activity [3],Selectivity ratio (Homo sapiens),residual activity [4],residual activity [5],residual activity [6],residual activity [7],IC50 [8],residual activity [9],residual activity [10],IC50 [11],inhibition [12],IC50 [13]
CCCCc1ccc(NC(=O)[C@@H]2O[C@@H]2C(N)=O)cc1 (racemic),inactive,79%,104%,10000,76%,93%,34%,102%,0.15 µM,99%,27%,0.22 µM,,
NC(=O)[C@@H]1O[C@@H]1C(=O)Nc1ccccc1 (racemic),inactive,,,10000,,,,,1.1 µM,,,0.72 µM,,
NC(=O)[C@@H]1O[C@@H]1C(=O)Nc1ccc(Br)cc1 (racemic),inactive,,,10000,,,,,0.057 µM,,,0.13 µM,,
Cc1ccc(NC(=O)[C@H]2O[C@H]2C(N)=O)cc1C (racemic),inactive,,,10000,,,,,0.13 µM,,,0.11 µM,,
NC(=O)[C@@H]1O[C@@H]1C(=O)Nc1ccc(CCNS(=O)(=O)c2ccccc2[N+](=O)[O-])cc1 (racemic),inactive,,,10000,,,,,0.088 µM,,,0.09 µM,,
NC(=O)[C@@H]1O[C@@H]1C(=O)Nc1ccc(Oc2ccc([N+](=O)[O-])cc2)cc1 (racemic),inactive,,,10000,,,,,,,,0.43 µM,,
NC(=O)[C@@H]1O[C@@H]1C(=O)Nc1ccc(Oc2ccc(N)cc2)cc1 (racemic),inactive,,,10000,,,,,0.048 µM,,,0.086 µM,,
NC(=O)[C@@H]1O[C@@H]1C(=O)Nc1ccc(Oc2ccc(NC(=O)c3ccc(F)cc3)cc2)cc1 (racemic),inactive,,,10000,,,,,0.15 µM,,,0.1 µM,,
C/C=C/C/C=C/CCC(=O)[C@H]1O[C@H]1C(N)=O [CERULENIN],,,,,,,,,,,,4 µM,,18 µM

# Now those with a lower IC50 [11], led by results:
inhibition [1],residual activity [2],residual activity [3],Selectivity ratio (Homo sapiens),residual activity [4],residual activity [5],residual activity [6],residual activity [7],IC50 [8],residual activity [9],residual activity [10],IC50 [11],inhibition [12],Structure (SMILES),IC50 [13]
inactive,47%,78%,10000,32%,96%,7.8%,90%,0.046 µM,66%,6.1%,0.055 µM,Active,NC(=O)[C@H]1O[C@H]1C(=O)Nc1ccc(Oc2ccccc2)cc1 (racemic),
inactive,,,10000,,,,,0.048 µM,,,0.048 µM,,NC(=O)[C@H]1O[C@H]1C(=O)Nc1cccc(Cl)c1 (racemic),
inactive,,,10000,,,,,0.05 µM,,,0.004 µM,,NC(=O)[C@H]1O[C@H]1C(=O)Nc1cccc(Oc2ccccc2)c1 (racemic),
inactive,,,10000,,,,,0.0096 µM,,,0.004 µM,,NC(=O)[C@@H]1O[C@@H]1C(=O)Nc1ccc(Br)c(Cl)c1 (racemic),
